Calls of active or inactive are those of the source.
Key:
[1] = molecular target: UDP-galactopyranose mutase (Mycobacterium tuberculosis, UniProt P9WIQ1); assay: Inhibitors of Mycobacterium tuberculosis UDP-galactopyranose mutase (UGM) enzyme Measured in Biochemical System Using Plate Reader - 2105-02_Inhibitor_Dose_CherryPick_Activity. [Related pubchem assays (depositor defined):AID504439]
[2] = molecular target: T1, Zinc finger protein mex-5 (Caenorhabditis elegans, UniProt Q9XUB2); assay: potency of MEX-5 RNA-binding blockers – biochemical, C. elegans, fluorescence polarization, dose response (AID 1960)
T1 sequence (Q9XUB2 whole entry): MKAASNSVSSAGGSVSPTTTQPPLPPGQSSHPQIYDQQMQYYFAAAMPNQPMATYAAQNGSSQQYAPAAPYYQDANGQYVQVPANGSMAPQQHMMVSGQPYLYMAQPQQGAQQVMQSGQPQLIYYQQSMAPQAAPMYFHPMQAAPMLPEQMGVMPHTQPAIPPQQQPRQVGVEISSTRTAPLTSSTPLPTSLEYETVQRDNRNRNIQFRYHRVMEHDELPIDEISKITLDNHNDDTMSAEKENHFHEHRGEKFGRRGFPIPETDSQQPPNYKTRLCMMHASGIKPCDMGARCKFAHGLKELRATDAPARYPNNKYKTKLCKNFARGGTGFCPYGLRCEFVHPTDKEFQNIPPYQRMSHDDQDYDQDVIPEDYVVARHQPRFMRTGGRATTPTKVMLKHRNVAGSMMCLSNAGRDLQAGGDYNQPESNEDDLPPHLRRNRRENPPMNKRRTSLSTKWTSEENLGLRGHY

[3] = molecular target: T2, RNA-binding protein pos-1 (Caenorhabditis elegans, UniProt G5EF15); assay: disruptors of C. elegans POS-1 RNA interaction – biochemical, fluorescence polarization, dose response (AID 1964);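 note: purified POS-1 fused to maltose binding protein made in E. coli; potency of compounds blocking POS-1 binding to fluorescent RNA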
T2 sequence (G5EF15 whole entry): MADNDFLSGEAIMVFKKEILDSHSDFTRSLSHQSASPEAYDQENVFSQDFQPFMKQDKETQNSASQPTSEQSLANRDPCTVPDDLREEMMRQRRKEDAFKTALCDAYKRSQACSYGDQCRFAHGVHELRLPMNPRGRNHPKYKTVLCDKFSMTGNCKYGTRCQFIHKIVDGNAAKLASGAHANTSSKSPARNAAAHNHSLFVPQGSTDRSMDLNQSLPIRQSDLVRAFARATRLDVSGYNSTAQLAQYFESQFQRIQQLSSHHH

[4] = molecular target: Cytochrome P450 2D6 (Homo sapiens, UniProt P10635)
Chain of Cytochrome P450 2D6 (P10635 whole entry): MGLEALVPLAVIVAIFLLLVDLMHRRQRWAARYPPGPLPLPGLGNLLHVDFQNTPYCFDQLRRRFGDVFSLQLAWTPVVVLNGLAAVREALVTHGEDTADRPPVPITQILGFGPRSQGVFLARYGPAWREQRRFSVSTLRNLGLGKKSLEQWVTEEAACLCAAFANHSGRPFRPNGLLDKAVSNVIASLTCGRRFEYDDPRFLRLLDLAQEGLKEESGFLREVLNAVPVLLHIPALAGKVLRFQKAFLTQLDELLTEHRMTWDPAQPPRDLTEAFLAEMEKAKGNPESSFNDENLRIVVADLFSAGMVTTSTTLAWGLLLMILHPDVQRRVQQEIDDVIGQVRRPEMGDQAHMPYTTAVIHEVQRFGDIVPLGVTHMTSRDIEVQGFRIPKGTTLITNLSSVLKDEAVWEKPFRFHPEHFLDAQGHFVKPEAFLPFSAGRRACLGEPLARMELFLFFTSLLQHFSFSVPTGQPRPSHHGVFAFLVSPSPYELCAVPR

[5] = molecular target: T3, Cytochrome P450 1A2 (Homo sapiens, UniProt P05177);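 note: PubChem cytochrome P450 panel assay, CYP1A2 panel member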
T3 sequence (P05177 whole entry): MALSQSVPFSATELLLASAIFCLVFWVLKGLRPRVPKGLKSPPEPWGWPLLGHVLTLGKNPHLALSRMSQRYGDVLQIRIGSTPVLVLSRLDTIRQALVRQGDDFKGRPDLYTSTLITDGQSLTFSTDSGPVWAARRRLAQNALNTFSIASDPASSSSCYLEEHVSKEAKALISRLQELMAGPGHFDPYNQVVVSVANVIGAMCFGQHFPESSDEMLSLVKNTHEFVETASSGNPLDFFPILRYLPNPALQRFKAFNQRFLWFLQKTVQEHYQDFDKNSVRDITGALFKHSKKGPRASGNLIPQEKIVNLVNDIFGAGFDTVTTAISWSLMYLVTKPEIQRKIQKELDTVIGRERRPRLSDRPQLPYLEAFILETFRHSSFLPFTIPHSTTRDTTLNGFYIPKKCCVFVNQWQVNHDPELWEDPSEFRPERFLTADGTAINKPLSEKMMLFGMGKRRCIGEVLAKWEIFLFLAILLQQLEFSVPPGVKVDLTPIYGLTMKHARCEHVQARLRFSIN

[6] = molecular target: Cytochrome P450 2C19 (Homo sapiens, UniProt P33261); assay: Cytochrome panel assay with activity outcomes. Panel member name: p450-cyp2c19 Compounds with AC50 equal or less than 10 uM are considered active; type: functional; conditions: read-out: AC50
Chain of Cytochrome P450 2C19 (P33261 whole entry): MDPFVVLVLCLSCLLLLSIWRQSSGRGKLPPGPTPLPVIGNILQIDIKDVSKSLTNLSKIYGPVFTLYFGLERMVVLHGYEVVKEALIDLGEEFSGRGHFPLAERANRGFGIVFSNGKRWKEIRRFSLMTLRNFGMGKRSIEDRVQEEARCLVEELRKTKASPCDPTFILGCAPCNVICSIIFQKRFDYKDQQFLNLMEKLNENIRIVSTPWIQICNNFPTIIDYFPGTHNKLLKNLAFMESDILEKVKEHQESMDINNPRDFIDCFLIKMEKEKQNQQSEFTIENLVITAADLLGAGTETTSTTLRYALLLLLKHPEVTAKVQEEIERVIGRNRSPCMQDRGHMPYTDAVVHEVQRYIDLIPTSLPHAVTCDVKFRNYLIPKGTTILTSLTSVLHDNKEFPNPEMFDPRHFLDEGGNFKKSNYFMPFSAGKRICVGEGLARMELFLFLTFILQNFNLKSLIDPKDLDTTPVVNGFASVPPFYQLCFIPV

[7] = Luminescence Cell-Based Dose Response HTS to Identify Inhibitors of 5'UTR Stem-Loop Driven Prion Protein mRNA Translation in H4 Neuroglioblastoma Cells. [Related pubchem assays: 1827 (Project Summary), 1813 (Primary HTS)]; type: functional
[8] = luciferase reporter signal suppression in cells – H4 neuroglioma cells, luminescence, dose response (AID 1990); type: functional, cell-based
[9] = tested on: Streptococcus sp. 'group A'; assay: Streptococcus pyogenes SK(-)GAS viability under kanamycin – luminescence, BacTiterGlo, confirmation, counter-screen for streptokinase expression inhibitor project, dose response (AID 1900); type: functional, organism-based
[10] = tested on: INS1; assay: INS-1E survival protection against cytokine death – cell-based, luminescence, retest, dose response (AID 449756); type: functional; conditions: Rattus norvegicus;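 note: cell death triggered by IL-1 beta plus TNF-alpha plus IFN-gamma mixture; protective hits raise ATP signal compared with cytokine alone wells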
[11] = alpha-synuclein stem-loop luciferase translation blockers – H4 neuroglioma cells, luminescence, confirmation (AID 1988); type: functional, cell-based
[12] = molecular target: C-C chemokine receptor type 6 (Homo sapiens, UniProt P51684); assay: antagonism of CCR6 beta-arrestin recruitment – cell-based, luminescent beta-arrestin readout, dose response (AID 504728); type: functional
Chain of C-C chemokine receptor type 6 (P51684 whole entry): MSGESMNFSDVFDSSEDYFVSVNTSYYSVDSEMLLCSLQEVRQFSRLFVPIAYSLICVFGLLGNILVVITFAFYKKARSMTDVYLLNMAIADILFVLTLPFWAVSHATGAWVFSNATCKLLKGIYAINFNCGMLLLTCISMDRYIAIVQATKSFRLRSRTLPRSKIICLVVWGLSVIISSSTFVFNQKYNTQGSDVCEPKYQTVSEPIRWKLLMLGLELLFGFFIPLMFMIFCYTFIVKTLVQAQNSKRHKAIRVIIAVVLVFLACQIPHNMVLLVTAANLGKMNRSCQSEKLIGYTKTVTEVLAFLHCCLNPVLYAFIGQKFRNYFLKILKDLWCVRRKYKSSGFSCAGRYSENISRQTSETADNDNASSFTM

[13] = tested on: Streptococcus; assay: GAS UMAA2166 growth inhibition – luminescence, BacTiterGlo, counter-screen for streptokinase expression inhibitor project, dose response (AID 1915); type: functional, organism-based;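 note: potency for reduction of bacterial viability or growth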
[14] = microbe, parasite or virus in culture; type: functional; conditions: Mycobacterium tuberculosis
[15] = tested on: HEK293; assay: cells; conditions: Homo sapiens
[16] = tested on: HEK293; assay: cells; conditions: Homo sapiens; remark: listed apart in the source
[17] = molecular target: Beta-galactosidase (Escherichia coli, UniProt Q8VNN2); assay: detection-enzyme interference by beta-gal modulators – biochemical, E. coli enzyme, set 3, artefact control for CCR6 antagonist project, dose response (AID 504712); type: functional
Chain of Beta-galactosidase (Q8VNN2 whole entry): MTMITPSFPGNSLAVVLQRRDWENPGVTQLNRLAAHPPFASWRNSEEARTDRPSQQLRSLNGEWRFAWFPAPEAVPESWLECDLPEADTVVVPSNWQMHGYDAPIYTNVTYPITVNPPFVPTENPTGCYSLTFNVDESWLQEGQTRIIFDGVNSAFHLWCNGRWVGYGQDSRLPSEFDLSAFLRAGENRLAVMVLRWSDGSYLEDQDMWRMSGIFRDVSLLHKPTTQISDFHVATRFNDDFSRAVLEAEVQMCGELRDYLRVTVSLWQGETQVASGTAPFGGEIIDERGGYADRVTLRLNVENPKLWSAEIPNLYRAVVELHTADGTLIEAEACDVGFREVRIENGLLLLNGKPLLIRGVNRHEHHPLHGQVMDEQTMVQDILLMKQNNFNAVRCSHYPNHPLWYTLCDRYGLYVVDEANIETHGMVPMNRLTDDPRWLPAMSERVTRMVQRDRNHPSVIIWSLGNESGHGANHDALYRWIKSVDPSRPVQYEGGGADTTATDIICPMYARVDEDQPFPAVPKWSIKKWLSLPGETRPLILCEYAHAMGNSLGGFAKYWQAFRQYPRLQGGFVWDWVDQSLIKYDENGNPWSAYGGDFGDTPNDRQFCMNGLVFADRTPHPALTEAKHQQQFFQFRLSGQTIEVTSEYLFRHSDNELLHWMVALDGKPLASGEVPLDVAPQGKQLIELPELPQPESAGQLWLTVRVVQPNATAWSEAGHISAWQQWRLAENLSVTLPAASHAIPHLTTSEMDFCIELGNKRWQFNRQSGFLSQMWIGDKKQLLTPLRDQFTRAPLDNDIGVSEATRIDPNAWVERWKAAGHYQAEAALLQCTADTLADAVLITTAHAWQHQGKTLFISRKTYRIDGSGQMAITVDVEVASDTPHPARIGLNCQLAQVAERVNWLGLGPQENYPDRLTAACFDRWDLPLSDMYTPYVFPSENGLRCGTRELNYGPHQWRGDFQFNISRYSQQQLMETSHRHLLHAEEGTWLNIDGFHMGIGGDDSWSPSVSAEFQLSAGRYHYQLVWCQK

[18] = molecular target: T4, Streptokinase A (Streptococcus pyogenes serotype M1, UniProt P10520); assay: viability-normalized secreted streptokinase activity reduction – plasminogen activation absorbance, OD405, dose response (AID 1914); type: functional, Streptococcus pyogenes M1 GAS;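 note: secreted streptokinase activity via plasminogen activation per viability signal from cell pellet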
T4 sequence (P10520 whole entry): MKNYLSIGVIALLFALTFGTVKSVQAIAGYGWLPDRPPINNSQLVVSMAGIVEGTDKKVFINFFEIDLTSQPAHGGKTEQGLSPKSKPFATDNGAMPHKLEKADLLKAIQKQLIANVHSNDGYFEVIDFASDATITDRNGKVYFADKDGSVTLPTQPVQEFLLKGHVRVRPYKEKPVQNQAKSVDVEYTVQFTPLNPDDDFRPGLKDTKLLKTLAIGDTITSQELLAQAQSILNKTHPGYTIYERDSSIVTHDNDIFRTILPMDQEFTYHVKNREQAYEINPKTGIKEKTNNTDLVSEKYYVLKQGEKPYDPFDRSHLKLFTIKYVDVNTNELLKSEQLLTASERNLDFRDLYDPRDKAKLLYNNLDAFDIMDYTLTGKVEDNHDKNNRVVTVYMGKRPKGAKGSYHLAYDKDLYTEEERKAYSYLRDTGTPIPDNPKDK

[19] = molecular target: Keap1/Nrf2 (Homo sapiens, UniProt Q14145); assay: disruptors of Keap1 binding to Nrf2 peptide – biochemical, fluorescence polarization, cherry-picked samples, dose response (AID 588683)
Chain of Keap1/Nrf2 (Q16236 whole entry, the tested form may be a part): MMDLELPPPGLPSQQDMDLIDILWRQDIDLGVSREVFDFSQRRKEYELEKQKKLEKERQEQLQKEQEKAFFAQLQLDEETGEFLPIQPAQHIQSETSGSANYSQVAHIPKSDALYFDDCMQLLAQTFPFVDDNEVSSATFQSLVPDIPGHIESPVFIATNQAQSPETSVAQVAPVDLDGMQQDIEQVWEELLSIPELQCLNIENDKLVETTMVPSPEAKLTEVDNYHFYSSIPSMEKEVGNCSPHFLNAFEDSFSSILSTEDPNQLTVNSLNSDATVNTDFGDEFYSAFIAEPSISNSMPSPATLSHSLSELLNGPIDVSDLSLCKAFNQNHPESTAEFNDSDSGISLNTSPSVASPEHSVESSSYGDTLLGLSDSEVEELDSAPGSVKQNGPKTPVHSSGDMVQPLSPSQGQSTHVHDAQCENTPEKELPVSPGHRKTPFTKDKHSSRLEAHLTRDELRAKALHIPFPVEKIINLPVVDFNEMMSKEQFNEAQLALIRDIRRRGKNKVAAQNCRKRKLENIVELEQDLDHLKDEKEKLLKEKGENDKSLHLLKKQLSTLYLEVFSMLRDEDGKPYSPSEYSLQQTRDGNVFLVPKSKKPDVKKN
Chain of Keap1/Nrf2 (Q14145 whole entry, the tested form may be a part): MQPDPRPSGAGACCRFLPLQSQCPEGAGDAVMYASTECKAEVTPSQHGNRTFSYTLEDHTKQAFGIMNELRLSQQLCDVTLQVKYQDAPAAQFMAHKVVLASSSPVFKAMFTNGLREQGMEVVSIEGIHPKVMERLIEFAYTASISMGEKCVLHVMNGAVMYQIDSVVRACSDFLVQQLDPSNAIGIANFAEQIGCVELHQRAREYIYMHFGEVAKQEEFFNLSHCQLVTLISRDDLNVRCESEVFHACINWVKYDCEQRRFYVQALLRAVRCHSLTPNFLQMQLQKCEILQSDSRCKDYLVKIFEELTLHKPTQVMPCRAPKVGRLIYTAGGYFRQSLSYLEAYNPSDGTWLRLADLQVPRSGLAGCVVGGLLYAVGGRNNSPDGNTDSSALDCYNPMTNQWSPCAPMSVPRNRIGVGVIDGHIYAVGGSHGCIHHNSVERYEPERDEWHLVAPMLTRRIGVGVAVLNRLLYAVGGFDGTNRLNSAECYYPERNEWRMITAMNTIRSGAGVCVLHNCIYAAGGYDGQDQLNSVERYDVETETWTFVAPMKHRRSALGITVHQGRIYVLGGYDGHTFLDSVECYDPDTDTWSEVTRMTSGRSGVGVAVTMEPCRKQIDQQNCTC

[20] = molecular target: Apelin receptor (Homo sapiens, UniProt P35414); assay: apelin receptor antagonists, arrestin read-out – cell-based, luminescent, enzyme-fragment complementation, selectivity assay for CCR6 antagonist project, SAR follow-up (AID 588359); type: functional
Chain of Apelin receptor (P35414 whole entry, the tested form may be a part): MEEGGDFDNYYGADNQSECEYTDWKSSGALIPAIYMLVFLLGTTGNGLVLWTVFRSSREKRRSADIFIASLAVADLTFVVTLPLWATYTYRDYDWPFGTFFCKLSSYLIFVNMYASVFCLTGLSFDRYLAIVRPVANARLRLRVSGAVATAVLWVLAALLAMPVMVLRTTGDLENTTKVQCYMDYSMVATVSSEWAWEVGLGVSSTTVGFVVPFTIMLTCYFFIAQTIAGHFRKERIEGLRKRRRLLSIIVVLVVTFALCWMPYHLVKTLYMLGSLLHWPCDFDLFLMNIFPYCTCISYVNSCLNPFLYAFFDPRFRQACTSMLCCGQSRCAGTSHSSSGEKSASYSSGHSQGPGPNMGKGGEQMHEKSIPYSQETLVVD

Chain of UDP-galactopyranose mutase (P9WIQ1 whole entry): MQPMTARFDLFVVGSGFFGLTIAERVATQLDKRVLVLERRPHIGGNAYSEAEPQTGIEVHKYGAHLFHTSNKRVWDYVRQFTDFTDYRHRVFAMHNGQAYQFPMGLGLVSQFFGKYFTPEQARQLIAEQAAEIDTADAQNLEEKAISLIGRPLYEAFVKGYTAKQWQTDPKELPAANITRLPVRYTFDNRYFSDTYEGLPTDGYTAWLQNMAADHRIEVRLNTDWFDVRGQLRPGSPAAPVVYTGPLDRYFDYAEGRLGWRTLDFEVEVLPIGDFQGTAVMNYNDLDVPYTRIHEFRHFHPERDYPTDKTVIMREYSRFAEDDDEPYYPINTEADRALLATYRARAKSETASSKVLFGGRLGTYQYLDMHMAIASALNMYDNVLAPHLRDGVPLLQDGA

Which AC50 [1] does the source give for `COC(=O)Cn1cc(C=C2C(=O)N(C)C(=O)N(C)C2=O)c2ccccc21` here?
Its AC50 is 129 µM (active).

And the EC50 [2]?
The EC50 was 2.85 µM (inconclusive).

What about the EC50 [3] of the same compound?
The EC50 was 3.15 µM (inconclusive).

Which AC50 [4] does the source give for `COc1ccc(-c2oc3ccccc3c(=O)c2OC(=O)c2ccc(C)cc2)cc1` here?
The AC50 was “inconclusive”.

And the AC50 [5]?
The AC50 was 1.41 µM (inconclusive).

What about the AC50 [6] of the same compound?
Its AC50 is 1 µM (inconclusive).

Which results are given for `COc1cccc(/C=N/Nc2nc(Nc3ccccc3)nc(-n3nc(C)cc3C)n2)c1O`?
EC50 [7]: 0.127 µM (active); EC50 [8]: 52.9 µM (active); EC50 [9]: 1.7 µM (active); AC50 [10]: 0.535 µM (active); EC50 [11]: 8.28 µM (active); IC50 [12]: > 66.6 µM (inactive); EC50 [13]: 4.15 µM (active); CC50 [14]: 8.56 µM (active); EC50 [15]: > 59.6 µM (inactive); EC50 [16]: > 59.6 µM (inactive); IC50 [17]: > 66.6 µM (inactive); EC50 [18]: > 150 µM (not active)

Which AC50 [19] does the source give for `Cc1ccc(S(=O)(=O)Nc2cccc(S(=O)(=O)Nc3ccccc3C(=O)O)c2)c(C)c1` here?
The AC50 was > 52 µM (inactive).

For `CCOC(=O)N1CCN(C(=O)C2CCN(C(=O)c3ccccc3C)CC2)CC1`, which IC50 [20] is on record?
The IC50 was > 66.6 µM (inactive).

What about the IC50 [17] of the same compound?
Its IC50 is > 66.6 µM (inactive).

From ChEMBL document CHEMBL1201862, “PubChem BioAssay data set” (2004)
